From ChEMBL document CHEMBL1201862, “PubChem BioAssay data set” (2004)
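Exposure lasted 48 hours, with cells grown in 96-well plates and compounds tested at five concentrations. Abbreviation: GI50, concentration required for 50% inhibition of growth.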 The source made the active and inactive calls. Cut-off read from the data, not from the text of the source: active = GI50 up to about 1.1 µM and inactive = higher.

Experiments:
Test in all cases: NCI tumour cell line growth inhibition, 48 h
NCI-H23 = tested on: NCI-H23
HOP-92 = tested on: HOP-92
HOP-62 = tested on: HOP-62
SF-295 = tested on: SF-295
A498 = tested on: A498
MDA-MB-435 = tested on: MDA-MB-435
HCT-15 = tested on: HCT-15
OVCAR-8 = tested on: OVCAR-8
SNB-75 = tested on: SNB-75
M14 = tested on: M14
SN12C = tested on: SN12C
A549 = tested on: A549
OVCAR-4 = tested on: OVCAR-4
CCRF-CEM = tested on: CCRF-CEM
IGROV-1 = tested on: IGROV-1
U-251 = tested on: U-251
PC-3 = tested on: PC-3
UACC-62 = tested on: UACC-62
RXF 393 = tested on: RXF 393
HCC 2998 = tested on: HCC 2998

Structure (SMILES)	GI50 (NCI-H23)	GI50 (HOP-92)	GI50 (HOP-62)	GI50 (SF-295)	GI50 (A498)	GI50 (MDA-MB-435)	GI50 (HCT-15) [µM]	GI50 (OVCAR-8)	GI50 (SNB-75)	GI50 (M14)	GI50 (SN12C)	GI50 (A549)	GI50 (OVCAR-4)	GI50 (CCRF-CEM)	GI50 (IGROV-1)	GI50 (U-251)	GI50 (PC-3)	GI50 (UACC-62)	GI50 (RXF 393)	GI50 (HCC 2998)
Cn1c(=O)c2c(nc(C(=N)SCC(=O)O)n2C)n(C)c1=O	27.7 µM (inactive)	36.6 µM (inactive)	56.5 µM (inactive)	52.7 µM (inactive)	26.9 µM (inactive)	29.2 µM (inactive)	31.8	42.7 µM (inactive)	41.2 µM (inactive)	43.5 µM (inactive)	45.9 µM (inactive)	39.5 µM (inactive)	24.4 µM (inactive)	5.57 µM (inactive)	47 µM (inactive)	95.9 µM (inactive)	48.4 µM (inactive)	34.4 µM (inactive)	53.1 µM (inactive)	–
Nc1nc(N)nc(CCCc2nc(N)nc(N)n2)n1	> 100 µM (inactive)	> 100 µM (inactive)	> 100 µM (inactive)	> 100 µM (inactive)	> 100 µM (inactive)	> 100 µM (inactive)	> 100	> 100 µM (inactive)	> 100 µM (inactive)	> 100 µM (inactive)	> 100 µM (inactive)	> 100 µM (inactive)	> 100 µM (inactive)	> 100 µM (inactive)	> 100 µM (inactive)	> 100 µM (inactive)	> 100 µM (inactive)	> 100 µM (inactive)	> 100 µM (inactive)	–
COC(=O)[C@@]1(Cc2ccc(OC(C)=O)cc2)Cc2cc3ccccc3n2N1	25.3 µM (inactive)	75 µM (inactive)	> 100 µM (inactive)	46.8 µM (inactive)	23.1 µM (inactive)	43.6 µM (inactive)	53.5	50.8 µM (inactive)	–	39.4 µM (inactive)	29.6 µM (inactive)	47.2 µM (inactive)	75.5 µM (inactive)	26.5 µM (inactive)	55.8 µM (inactive)	30.1 µM (inactive)	30 µM (inactive)	57.4 µM (inactive)	–	–
CCCC(=O)Oc1ccc2c(C)cc(=O)oc2c1OC(=O)CCC	48.8 µM (inactive)	41.3 µM (inactive)	71.3 µM (inactive)	82.6 µM (inactive)	30.7 µM (inactive)	59.6 µM (inactive)	31.8	34.8 µM (inactive)	40.6 µM (inactive)	48.6 µM (inactive)	76.6 µM (inactive)	31.6 µM (inactive)	> 100 µM (inactive)	13.9 µM (inactive)	45.7 µM (inactive)	57.3 µM (inactive)	59.3 µM (inactive)	60.3 µM (inactive)	–	–
Cc1cc(NS(=O)(=O)c2ccc(Nc3c4ccccc4nc4c(C(=O)NCCO)cccc34)cc2)no1	39.2 µM (inactive)	20.5 µM (inactive)	32.9 µM (inactive)	38.7 µM (inactive)	30.1 µM (inactive)	24.7 µM (inactive)	24.9	34.5 µM (inactive)	7.19 µM (inactive)	29 µM (inactive)	32.7 µM (inactive)	37.3 µM (inactive)	29 µM (inactive)	15.2 µM (inactive)	25.1 µM (inactive)	27.7 µM (inactive)	39.2 µM (inactive)	20.2 µM (inactive)	–	40.7 µM (inactive)
N#CC(O)CCOCc1ccccc1 (stereo unspecified)	> 100 µM (inactive)	65.2 µM (inactive)	> 100 µM (inactive)	> 100 µM (inactive)	> 100 µM (inactive)	> 100 µM (inactive)	52.4	> 100 µM (inactive)	–	> 100 µM (inactive)	> 100 µM (inactive)	> 100 µM (inactive)	> 100 µM (inactive)	35.4 µM (inactive)	> 100 µM (inactive)	> 100 µM (inactive)	> 100 µM (inactive)	> 100 µM (inactive)	–	–
C[C@@H](CO)C1=C(O)C(=O)c2c(ccc3c2CCCC3(C)C)C1=O	22.1 µM (inactive)	21.2 µM (inactive)	29.2 µM (inactive)	30.4 µM (inactive)	33 µM (inactive)	26.8 µM (inactive)	29	35.2 µM (inactive)	40 µM (inactive)	17.7 µM (inactive)	54.8 µM (inactive)	32.1 µM (inactive)	46.7 µM (inactive)	3.33 µM (inactive)	37.2 µM (inactive)	14.1 µM (inactive)	31.8 µM (inactive)	23.2 µM (inactive)	43.8 µM (inactive)	–
C=C(Cl)C(=C)CCC(Cl)C(C)C (stereo unspecified)	> 100 µM (inactive)	> 100 µM (inactive)	> 100 µM (inactive)	> 100 µM (inactive)	> 100 µM (inactive)	> 100 µM (inactive)	–	–	–	> 100 µM (inactive)	> 100 µM (inactive)	> 100 µM (inactive)	> 100 µM (inactive)	> 100 µM (inactive)	> 100 µM (inactive)	> 100 µM (inactive)	> 100 µM (inactive)	> 100 µM (inactive)	> 100 µM (inactive)	> 100 µM (inactive)
COC(=O)[C@]12CC[C@H]3CN(C(=O)OCc4ccccc4)[C@H]([C@H]31)[C@H](c1ccco1)N2	17.3 µM (inactive)	29.4 µM (inactive)	90.2 µM (inactive)	32.1 µM (inactive)	0.0226 µM (active)	19.4 µM (inactive)	23.9	33 µM (inactive)	–	38 µM (inactive)	46.2 µM (inactive)	37.2 µM (inactive)	0.61 µM (active)	33.4 µM (inactive)	60.4 µM (inactive)	84.7 µM (inactive)	33.2 µM (inactive)	23.7 µM (inactive)	> 100 µM (inactive)	> 100 µM (inactive)
CO/C=C(/C(=O)OC)c1ccccc1[C@@H]1CC1c1cccc(F)c1 (stereo partly specified)	24.5 µM (inactive)	23.3 µM (inactive)	51.6 µM (inactive)	67 µM (inactive)	25.6 µM (inactive)	19.3 µM (inactive)	23.4	33.5 µM (inactive)	–	19.8 µM (inactive)	29.6 µM (inactive)	20.6 µM (inactive)	20.2 µM (inactive)	26.5 µM (inactive)	18.2 µM (inactive)	30.5 µM (inactive)	29 µM (inactive)	18.2 µM (inactive)	58.3 µM (inactive)	25 µM (inactive)
O=C(O)CCCc1ccc2ccc3ccccc3c2c1	> 100 µM (inactive)	72.6 µM (inactive)	34.8 µM (inactive)	21.8 µM (inactive)	73.5 µM (inactive)	> 100 µM (inactive)	51.1	71.9 µM (inactive)	14 µM (inactive)	> 100 µM (inactive)	> 100 µM (inactive)	61 µM (inactive)	> 100 µM (inactive)	–	> 100 µM (inactive)	71.1 µM (inactive)	34.8 µM (inactive)	38.3 µM (inactive)	15.3 µM (inactive)	–
